Data published in paper PMC10458530, “Synthesis and Evaluation of ePSMA-DM1: A New Theranostic Small-Molecule Drug Conjugate (T-SMDC) for Prostate Cancer” (Pharmaceuticals, 2023).
Several values for one entry are separate records, joined by “and”; a condition that tells them apart may be missing. Identical values can stand only once. Entries after “also recorded” stand apart in the source; their conditions may differ. Like-named read-outs stand apart in the source and are kept apart here. Each block holds one molecule with its values, some of them ahead of it. Non-standard residues stand in square brackets, D forms with d. Residues, ends and D or L forms follow the SMILES beside them. *: point of attachment. Propanoyl(3-SS-DM1) = COc1cc2cc(c1Cl)N(C)C(=O)C[C@H](OC(=O)[C@H](C)N(C)C(=O)CCSSCCC(=O)*)[C@]1(C)O[C@H]1[C@H](C)[C@@H]1C[C@@](O)(NC(=O)O1)[C@H](OC)/C=C/C=C(\C)C2; DOTA = O=C(O)CN1CCN(CC(=O)O)CCN(CC(=O)*)CCN(CC(=O)O)CC1; EuK = O=C(O)CC[C@H](NC(=O)N[C@@H](CCCCN*)C(=O)O)C(=O)O; Sta = CC(C)C[C@H](N)[C@@H](O)CC(=O)O; Ahx = NCCCCCC(=O)O

Key:
[1] = system: PSMA-positive LS174T cells; test: Resazurin-based cytotoxicity assay; type: cell-based, human; conditions: for cell viability: 48 h post treatment
Experimental: LS174T human colon carcinoma cells transfected with human PSMA were cultured in RPMI-1640 media supplemented with 2 mM glutamine, 10% fetal bovine serum (FBS) and 0.3 mg/mL G418 (Geneticin, Sigma Aldrich, Burlington, MA, USA). The cells were provided by Dr. Sandra Heskamp (Radboud UMC, Nijmegen, The Netherlands).
A resazurin in vitro toxicology assay kit was used to determine cytotoxicity. Briefly, 5 × 10^3 LS174T cells were seeded in a volume of 100 µL per well in 96-well plates and incubated at 37 °C with 5% CO2 for 24 h before the experiment. After incubation, the media were removed, and the wells were washed once with PBS. Then, ePSMA-DM1 at the concentrations of 1, 10, 100 and 1000 nM and the positive control DM1 (1000 nM) were prepared in culture media (RPMI-1640 media supplemented with 2 mM glutamine, 10% fetal bovine serum (FBS) and 0.3 mg/mL G418). Media and PSMA-617 (100 nM) were used as negative controls. Cells were incubated with 100 µL of the tested compounds for 48 and 72 h at 37 °C with 5% CO2. After incubation, media were removed, and each well was washed once with PBS. Next, 100 µL of 10% resazurin solution (TOX8, Sigma-Aldrich) in culture media was added to each well and incubated for 2.5 h. Fluorescence was measured using the HIDEX Sense Optical System with excitation at 544 nm and emission at 590 nm. Data were analyzed using GraphPad Prism 9.0 and expressed as cell viability (%). The experiments were performed in triplicate.

Recombinant human PSMA = molecular target: T1, Recombinant human PSMA (Homo sapiens, UniProt Q04609); test: NAALADase enzymatic assay (binding to PSMA); type: biochemical
T1 construct: purchased R & D systems, Abingdon, UK
Experimental: Recombinant human PSMA (rhPSMA; R & D systems, Abingdon, UK) was diluted in assay buffer (50 mM HEPES, 0.1 M NaCl, pH 7.5) to 0.4 μg/mL. The substrate Ac-Asp-Glu (40 μM) was mixed with ePSMA-DM1 or with a reference (PSMA-617) at concentrations ranging from 10^−6 to 10^−13 M in a final volume of 12.5 μL assay buffer. The mixtures were combined with 12.5 μL of the rhPSMA solution and incubated for 1 h at 37 °C in 384-well black polystyrene microplates (ThermoFisher, Bleiswijk, The Netherlands). A volume of 25 μL of a working solution of the Amplex Red glutamic acid kit (ThermoFisher, Bleiswijk, The Netherlands) was added and incubated at 37 °C for 30 min. Release of glutamate was measured by fluorescence with a HIDEX Sense Optical System (Goedereede, The Netherlands) set at 535 nm (excitation) and 590 nm (emission). Data were normalized, and one-site total binding regression was applied for analysis with GraphPad Prism v9.0 (GraphPad Software, San Diego, CA, USA).

Stability in PBS = type: physicochemical; conditions: 24 h post incubation, 37 °C
Experimental: [^111In]In-ePSMA-DM1 (~10 MBq, 20 µL) was mixed with 80 μL of PBS (0.01 M, pH 7.4) and incubated at 37 °C for up to 24 h. A sample of the PBS solution was loaded directly onto the radio-HPLC at 1, 4 and 24 h post incubation.

Stability in mouse serum = type: in vitro ADME; conditions: 24 h post incubation, 37 °C
Experimental: [^111In]In-ePSMA-DM1 (~30 MBq, 70 µL) was mixed with 330 μL of mouse serum and incubated at 37 °C for up to 24 h. To a separate vial containing 50 µL of acetonitrile, 50 μL of the mouse serum solution was added after 1, 4 and 24 h of incubation. The sample was centrifuged at 5000× g for 20 min. The supernatant was analyzed by radio-HPLC.

[2] = system: BALB/c nu/nu LS174T xenografted mice; test: Ex vivo biodistribution; type: in vivo, mouse; conditions: estimated, one-phase decay
Experimental: Animal experiments were performed using male BALB/c nude mice (8–10 weeks old; Janvier Labs, Le Genest-Saint-Isle, France). Animals were housed in individually ventilated cages (Blue line IVC, 2 mice per cage) under sterile standard conditions with cage enrichments present and free access to animal chow (Sniff GmbH, Soest, Germany) and water. They were acclimated for 1 week prior to experiments. Mice were subcutaneously inoculated with 4.0 × 10^6 LS174T cells in the right flank diluted in 100 μL of cell suspension […]. The average tumor volume size per group (n = 4) was of 206.2 ± 7.9 mm^3 (average weight of 105.8 ± 7.3 mg) after non-blinded grouping to enable homogenous tumor size distribution. [^111In]In-ePSMA-DM1 was injected intravenously via the tail vein. All experiments were approved by the institutional Animal Welfare Committee and were conducted in accordance to the guidelines of the Revised Dutch Act on Animal Experimentation (WOD).
Mice were intravenously injected with ~1 nmol of [^111In]In-ePSMA-DM1 (5 MBq). Mice (n = 4/timepoint) were euthanized by cervical dislocation at 1, 4 and 24 h p.i. A block group (co-injection of 50 nmol of PSMA-617) was included, and mice were euthanized at 4 h p.i. Organs (blood, heart, lungs, liver, spleen, stomach, intestines, pancreas, kidneys, muscle, skin, bone and prostate) and the tumors were collected in pre-weighed tubes, weighed after organ collection, and measured in the γ-counter, for which the calibration factor was determined by measuring different known activities of In-111. Activity was corrected for decay, and uptake was expressed as percentage of the injected dose per gram of the tissue (% ID/g). The biological half-lives in tissues of [^111In]In-ePSMA-DM1 were determined using a one-phase decay algorithm in GraphPad Prism 9.0 (GraphPad Software, Boston, MA, USA).

[3] = Glutathione (GSH) stability / drug release assay; type: in vitro ADME
Experimental: The protocol was adapted from the literature. A 5 mM solution of L-glutathione was prepared in PBS, and 990 μL aliquots were dispensed into Eppendorf tubes. To each tube, 10 μL of a solution of ePSMA-DM1 (1 mM) in MeOH was added, and the mixtures were incubated at 37 °C. Then 50 μL aliquots of the solution were taken at 10 min, 30 min, 1, 2, 4 and 6 h and analyzed by LC-MS. The experiments were performed in triplicate.

T1 sequence (Q04609 whole entry): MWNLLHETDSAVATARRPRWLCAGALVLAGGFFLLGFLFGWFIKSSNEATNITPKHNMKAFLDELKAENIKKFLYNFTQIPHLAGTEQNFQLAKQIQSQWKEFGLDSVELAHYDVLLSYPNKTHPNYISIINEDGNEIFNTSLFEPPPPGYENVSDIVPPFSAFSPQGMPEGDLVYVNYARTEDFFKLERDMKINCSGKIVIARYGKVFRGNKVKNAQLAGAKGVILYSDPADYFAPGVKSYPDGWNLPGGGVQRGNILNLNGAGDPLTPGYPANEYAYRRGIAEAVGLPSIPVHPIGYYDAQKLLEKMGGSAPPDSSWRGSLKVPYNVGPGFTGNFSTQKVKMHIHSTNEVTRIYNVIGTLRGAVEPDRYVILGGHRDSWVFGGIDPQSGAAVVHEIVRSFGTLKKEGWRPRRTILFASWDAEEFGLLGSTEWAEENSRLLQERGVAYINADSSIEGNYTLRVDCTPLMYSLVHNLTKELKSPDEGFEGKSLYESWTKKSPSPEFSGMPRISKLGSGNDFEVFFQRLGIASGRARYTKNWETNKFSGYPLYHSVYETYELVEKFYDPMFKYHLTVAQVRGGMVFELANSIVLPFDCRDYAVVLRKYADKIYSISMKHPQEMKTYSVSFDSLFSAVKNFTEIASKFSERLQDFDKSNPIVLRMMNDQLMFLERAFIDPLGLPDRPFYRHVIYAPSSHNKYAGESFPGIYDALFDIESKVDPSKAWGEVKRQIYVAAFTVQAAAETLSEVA

SMILES: COc1cc2cc(c1Cl)N(C)C(=O)C[C@H](OC(=O)[C@H](C)N(C)C(=O)CCS)[C@]1(C)O[C@H]1[C@H](C)[C@@H]1C[C@@](O)(NC(=O)O1)[C@H](OC)/C=C/C=C(\C)C2 [DM1, Mertansine, reference compound]
cell viability ([1]; 1000 nM): ~ 50% | decrease in cell viability ([1]; 1000 nM, 72 h): more than 85%

IC50 (Recombinant human PSMA; NAALADase assay, rhPSMA, substrate Ac-Asp-Glu, read-out: IC50 (binding affinity to PSMA)): 2.19 ± 0.78 nM
SMILES: O=C(O)CC[C@H](NC(=O)N[C@@H](CCCCNC(=O)[C@H](Cc1ccc2ccccc2c1)NC(=O)[C@H]1CC[C@H](CNC(=O)CN2CCN(CC(=O)O)CCN(CC(=O)O)CCN(CC(=O)O)CC2)CC1)C(=O)O)C(=O)O [PSMA-617, reference compound]
decrease in viability ([1]; 100 nM, negative control): not observed

SMILES: COc1cc2cc(c1Cl)N(C)C(=O)C[C@H](OC(=O)[C@H](C)N(C)C(=O)CCSSCCC(=O)NCCCC[C@H](NC(=O)CN1CCN(CC(=O)O)CCN(CC(=O)O)CCN(CC(=O)O)CC1)C(=O)N[C@@H](CC(=O)O)C(=O)N[C@@H](Cc1ccccc1)C(=O)N[C@@H](CC(C)C)[C@@H](O)CC(=O)NCCCCCC(=O)NCCCC[C@H](NC(=O)N[C@@H](CCC(=O)O)C(=O)O)C(=O)O)[C@]1(C)O[C@H]1[C@H](C)[C@@H]1C[C@@](O)(NC(=O)O1)[C@H](OC)/C=C/C=C(\C)C2 [[^111In]In-ePSMA-DM1] [metal not drawn] ({DOTA}-K(Propanoyl(3-SS-DM1))DF[Sta][Ahx]-EuK)
Stability in PBS (%) (Stability in PBS): 90.9% | Stability in Mouse Serum (%) (Stability in mouse serum): 82.9% | half-life in the blood [2]: 1.5 h | half-life in the tumor [2]: 2.1 h

SMILES: COc1cc2cc(c1Cl)N(C)C(=O)C[C@H](OC(=O)[C@H](C)N(C)C(=O)CCSSCCC(=O)NCCCC[C@H](NC(=O)CN1CCN(CC(=O)O)CCN(CC(=O)O)CCN(CC(=O)O)CC1)C(=O)N[C@@H](CC(=O)O)C(=O)N[C@@H](Cc1ccccc1)C(=O)N[C@@H](CC(C)C)[C@@H](O)CC(=O)NCCCCCC(=O)NCCCC[C@H](NC(=O)N[C@@H](CCC(=O)O)C(=O)O)C(=O)O)[C@]1(C)O[C@H]1[C@H](C)[C@@H]1C[C@@](O)(NC(=O)O1)[C@H](OC)/C=C/C=C(\C)C2 [[^177Lu]Lu-ePSMA-DM1] [metal not drawn] ({DOTA}-K(Propanoyl(3-SS-DM1))DF[Sta][Ahx]-EuK)
Stability in PBS (%) (Stability in PBS): 81.4% | Stability in Mouse Serum (%) (Stability in mouse serum): 91.2%

SMILES: COc1cc2cc(c1Cl)N(C)C(=O)C[C@H](OC(=O)[C@H](C)N(C)C(=O)CCSSCCC(=O)NCCCC[C@H](NC(=O)CN1CCN(CC(=O)O)CCN(CC(=O)O)CCN(CC(=O)O)CC1)C(=O)N[C@@H](CC(=O)O)C(=O)N[C@@H](Cc1ccccc1)C(=O)N[C@@H](CC(C)C)[C@@H](O)CC(=O)NCCCCCC(=O)NCCCC[C@H](NC(=O)N[C@@H](CCC(=O)O)C(=O)O)C(=O)O)[C@]1(C)O[C@H]1[C@H](C)[C@@H]1C[C@@](O)(NC(=O)O1)[C@H](OC)/C=C/C=C(\C)C2 [ePSMA-DM1] ({DOTA}-K(Propanoyl(3-SS-DM1))DF[Sta][Ahx]-EuK)
IC50 (Recombinant human PSMA): 45.3 ± 1.84 nM | drug released ([3]; after 2 h, 5 mM GSH): ~ 50% and 50% | half-life at 10 µM ([3]; buffer, 5 mM GSH in PBS, 37 °C, read-out: half-life in a reducing environment (converted)): 2 h | cytotoxic effect ([1]; 1 nM, 48 and 72 h): not sufficient to elicit cell death; also recorded: not observed | cell viability ([1]; 100 nM): ~ 50% | cell viability ([1]; 1000 nM): ~ 50%
